Laboratory results: patent US20210403435A1, “HERBICIDAL COMPOUNDS” (SYNGENTA CROP PROTECTION AG, priority 2018, published 2021)
Structures can show the parent of a compound that is named as a salt. Where two headings read alike, the source gives them in different places.

Experiments:
Test in all cases: Post-emergence efficacy, glasshouse, evaluated after 13 days
Format in all cases: in vivo
[1] = system: Amaranthus palmeri (AMAPA); details: for pest or weed control at 500 g/ha: Amaranthus palmeri, 312 h, read-out: Control of weed species AMAPA (100=total damage to plant; 0=no damage to plant)
Procedure: (§1) Seeds of a variety of test species were sown in standard soil in pots. After cultivation for 14 days (post-emergence) under controlled conditions in a glasshouse (at 24/16° C., day/night; 14 hours light; 65% humidity), the plants were sprayed with an aqueous spray solution derived from the dissolution of the technical active ingredient formula (I) in a small amount of acetone and a special solvent and emulsifier mixture referred to as IF50 (11.12% Emulsogen EL360 TM+44.44% N-methylpyrrolidone+44.44% Dowanol DPM glycol ether), to create a 50 g/l solution which was then diluted to required concentration using 0.25% or 1% Empicol ESC70 (Sodium lauryl ether sulphate)+1% ammonium sulphate as diluent.
(§2) The test plants were then grown in a glasshouse under controlled conditions (at 24/16° C., day/night; 14 hours light; 65% humidity) and watered twice daily. After 13 days the test was evaluated (100=total damage to plant; 0=no damage to plant).
(§3) Ipomoea hederacea (IPOHE), Euphorbia heterophylla (EPHHL), Chenopodium album (CHEAL), Amaranthus palmeri (AMAPA), Lolium perenne (LOLPE), Digitaria sanguinalis (DIGSA), Eleusine indica (ELEIN), Echinochloa crus-galli (ECHCG), Setaria faberi (SETFA)

[2] = system: Chenopodium album (CHEAL); details: for pest or weed control at 500 g/ha: Chenopodium album, 312 h, read-out: Control of weed species CHEAL (100=total damage to plant; 0=no damage to plant)
Procedure: as §1, §2, §3

[3] = system: Digitaria sanguinalis (DIGSA); details: for pest or weed control at 500 g/ha: Digitaria sanguinalis, 312 h, read-out: Control of weed species DIGSA (100=total damage to plant; 0=no damage to plant)
Procedure: as §1, §2, §3

[4] = system: Echinochloa crus-galli (ECHCG); details: for pest or weed control at 500 g/ha: Echinochloa crus-galli, 312 h, read-out: Control of weed species ECHCG (100=total damage to plant; 0=no damage to plant)
Procedure: as §1, §2, §3

Eleusine indica (ELEIN) = details: for pest or weed control at 500 g/ha: Eleusine indica, 312 h, read-out: Control of weed species ELEIN (100=total damage to plant; 0=no damage to plant)
Procedure: as §1, §2, §3

[5] = system: Euphorbia heterophylla (EPHHL); details: Euphorbia heterophylla, 312 h, read-out: Control of weed species EPHHL (100=total damage to plant; 0=no damage to plant)
Procedure: as §1, §2, §3

[6] = system: Ipomoea hederacea (IPOHE); details: for pest or weed control at 500 g/ha: Ipomoea hederacea, 312 h, read-out: Control of weed species IPOHE (100=total damage to plant; 0=no damage to plant)
Procedure: as §1, §2, §3

Lolium perenne (LOLPE) = details: for pest or weed control at 500 g/ha: Lolium perenne, 312 h, read-out: Control of weed species LOLPE (100=total damage to plant; 0=no damage to plant)
Procedure: as §1, §2, §3

Setaria faberi (SETFA) = details: for pest or weed control at 500 g/ha: Setaria faberi, 312 h, read-out: Control of weed species SETFA (100=total damage to plant; 0=no damage to plant)
Procedure: as §1, §2, §3

[7] = post-emergence application, 500 g/Ha, evaluated after 13 days

| Structure (SMILES) | pest or weed control at 500 g/ha [1, 7] [%] | pest or weed control at 500 g/ha [2, 7] [%] | pest or weed control at 500 g/ha [3, 7] [%] | pest or weed control at 500 g/ha [4, 7] [%] | pest or weed control at 500 g/ha (Eleusine indica (ELEIN); [7]) [%] | pest or weed control at 500 g/ha [5, 7] [%] | pest or weed control at 500 g/ha [6, 7] [%] | pest or weed control at 500 g/ha (Lolium perenne (LOLPE); [7]) [%] | pest or weed control at 500 g/ha (Setaria faberi (SETFA); [7]) [%] | further results |
| --- | --- | --- | --- | --- | --- | --- | --- | --- | --- | --- |
| CNC(=O)c1cc[n+](CCS(=O)(=O)[O-])nc1 [Compound A1, 2-[4-(methylcarbamoyl)pyridazin-1-ium-1-yl]ethanesulfonate] | 100 | 70 | 90 | 60 | 70 | 70 | 60 | 80 | 80 | – |
| CNC(=O)c1cc[n+](CCC(=O)O)nc1 [Compound A4, 3-[4-(methylcarbamoyl)pyridazin-1-ium-1-yl]propanoic acid trifluoroacetate] | – | – | – | – | – | – | – | – | – | pest or weed control at 500 g/ha ([2]; post-emergence): 80%; pest or weed control at 500 g/ha ([3]; post-emergence): 100%; pest or weed control at 500 g/ha ([4]; post-emergence): 90%; pest or weed control at 500 g/ha (Eleusine indica (ELEIN); post-emergence): 100%; pest or weed control at 500 g/ha ([5]; post-emergence): 90%; pest or weed control at 500 g/ha ([6]; post-emergence): 80%; pest or weed control at 500 g/ha (Lolium perenne (LOLPE); post-emergence): 60%; pest or weed control at 500 g/ha (Setaria faberi (SETFA); post-emergence): 90% |
| CC(C)N(C)C(=O)c1cc[n+](CCS(=O)(=O)O)nc1 [Compound A9] | 90 | 90 | 50 | 30 | 20 | – | 30 | 30 | 60 | – |
| CCCCNC(=O)c1cc[n+](CCC(=O)O)nc1 [Compound A45] | 80 | 90 | 70 | 70 | 80 | – | 30 | 60 | 90 | – |
| CCNC(=O)c1cc[n+](CCS(=O)(=O)[O-])nc1 [Compound A48] | 90 | – | 90 | 70 | 100 | – | 80 | 70 | 90 | – |
| O=C(NCCO)c1cc[n+](CCS(=O)(=O)[O-])nc1 [Compound A49] | 100 | 80 | 100 | 80 | 30 | – | 70 | 60 | 90 | – |
| CNC(=O)c1cc[n+](CCS(=O)(=O)[O-])nc1-c1ccccc1 [Compound A54] | 80 | 70 | 60 | 40 | 50 | – | 10 | 0 | 20 | – |
| CNC(=O)c1cc[n+](CCC(=O)O)nc1-c1ccccc1 [Compound A55] | 100 | 80 | 60 | 80 | 30 | – | 40 | 0 | 40 | – |
| CNC(=O)c1cc[n+](CCS(=O)(=O)[O-])nc1C [Compound A56] | – | – | – | – | – | – | – | – | – | Control of weed species AMAPA (100=total damage to plant; 0=no damage to plant) [1, 7]: 100; Control of weed species CHEAL (100=total damage to plant; 0=no damage to plant) [2, 7]: 90; Control of weed species DIGSA (100=total damage to plant; 0=no damage to plant) [3, 7]: 80; Control of weed species ECHCG (100=total damage to plant; 0=no damage to plant) [4, 7]: 90; Control of weed species ELEIN (100=total damage to plant; 0=no damage to plant) (Eleusine indica (ELEIN); [7]): 60; Control of weed species IPOHE (100=total damage to plant; 0=no damage to plant) [6, 7]: 30; Control of weed species LOLPE (100=total damage to plant; 0=no damage to plant) (Lolium perenne (LOLPE); [7]): 40; Control of weed species SETFA (100=total damage to plant; 0=no damage to plant) (Setaria faberi (SETFA); [7]): 60 |
| O=C(O)CC[n+]1ccc(C(=O)NC2CCCC2)cn1 [Compound A58] | 70 | 60 | 90 | 70 | 90 | – | 30 | 90 | 90 | – |
| O=C(O)CC[n+]1ccc(C(=O)NC2CS(=O)(=O)C2)cn1 [Compound A67] | 30 | 50 | 100 | 100 | 90 | – | 30 | 90 | 100 | – |
| O=C(O)CC[n+]1ccc(C(=O)NC2C[S+]([O-])C2)cn1 (stereo not drawn) [Compound A68] | 100 | 90 | 100 | 100 | – | 100 | 100 | 90 | 70 | – |
| C#CC(C)(C)NC(=O)c1cc[n+](CCC(=O)O)nc1 [Compound A77] | 100 | 90 | – | – | – | 100 | 10 | 80 | 100 | – |
| C#CC(C)NC(=O)c1cc[n+](CCC(=O)O)nc1 (stereo not drawn) [Compound A78] | 100 | 100 | – | – | – | 70 | 90 | 80 | 100 | – |
| CC(=O)NNC(=O)c1cc[n+](CCC(=O)O)nc1 [Compound A105] | 50 | 70 | – | 40 | 30 | 60 | 30 | 10 | 60 | – |
| CCNC(=O)c1cc[n+](CCP(=O)(O)O)nc1 [Compound A119] | 100 | 100 | – | 30 | 30 | 80 | 50 | 20 | 50 | – |
| CCNC(=O)c1cc[n+](C[C@H](N)C(=O)O)nc1 [Compound A121, [(1S)-1-carboxy-2-[4-(ethylcarbamoyl)pyridazin-1-ium-1-yl]ethyl]ammonium 2,2,2-trifluoroacetate] | – | – | – | – | – | – | – | – | – | pest or weed control at 500 g/ha ([1]; post-emergence): 10%; pest or weed control at 500 g/ha ([2]; post-emergence): 20%; pest or weed control at 500 g/ha ([4]; post-emergence): 10%; pest or weed control at 500 g/ha (Eleusine indica (ELEIN); post-emergence): 10%; pest or weed control at 500 g/ha ([5]; post-emergence): 30%; pest or weed control at 500 g/ha ([6]; post-emergence): 10%; pest or weed control at 500 g/ha (Lolium perenne (LOLPE); post-emergence): 10%; pest or weed control at 500 g/ha (Setaria faberi (SETFA); post-emergence): 10% |
